Data published in patent US11564388B2, “Supercooling methods for preservation of biological samples” (X-Therma, Inc., priority 2017, dated 2023).
“Also recorded” adds a separate entry of the source.

Tests used:
[1] = Crystallographic x-ray diffraction (XRD) ice formation assay; format: physicochemical; conditions: for reduction of necessary EG concentration while preventing ice formation (ice ring scores): XRD, EG 15-30% (v/v), peptoid 1 and 5 mg/mL
Description: In order to increase the throughput of library analysis, a crystallographic x-ray diffraction (XRD) technique was used to evaluate ice crystal formation. For these experiments, the compounds named “Compound 2,” “Compound 8,” “Compound 10,” “Compound 11,” “Compound 12,” “Compound 13,” and “Compound 58” were tested. Compound 58 is similar to Compound 12, except that an arginine amino acid has been appended to the N-terminal end.
For these experiments, EG concentrations between 15% and 30% (v/v) were used. Typically, EG, DMSO, and other cryoprotectants are used during XRD sample analysis at concentrations of 35-40% (v/v) to vitrify solutions and avoid diffraction interference from ice crystals. Concentrations of 1 and 5 mg/mL of the peptoid and peptoid-peptide compounds were used. FIGS. 3A, 3B, and 3C illustrate exemplary XRD data under conditions of complete vitrification, partial vitrification with the presence of cubic ice, and freezing ([…]), respectively. FIG. 3D provides ice rings scores for a variety of EG concentrations and two concentrations of Compounds 2, 8, and 12.
“IceRing1” and “IceRing2” refer to ice formation scores, which range between 0 (no ice formation) and 15 (large ice formation).
The sample containing Compound 12 at a concentration of 5 mg/mL (0.5% (w/v)) and EG at a concentration of 17.5% (v/v) in water was ice-free after flash freezing. […] In the figures, black spots and rings represent ice crystals.

HEK 293 cell line = experiment: Cytotoxicity assay (MTT); format: cell-based, human
Description: A Tecan Genesis Robotic Workstation was used to prepare solutions in 96- and 384-well plates. Solutions contained culture media, buffers, a cryoprotectant composition of the present invention (Compound 12) or DMSO. Solutions were adjusted to the desired pH. Serial dilutions were performed to obtain solutions containing various concentrations of Compound 12 and DMSO. Control experiments were performed using only culture media.
For these experiments, cells were seeded at low density (i.e., 10% confluence), exposed to solutions containing Compound 12 or DMSO, and placed in a 37° C. incubator. The cells were allowed to grow until control cells that were treated only with empty vehicle approached 70% confluence (typically about 3 to 5 days). Assessment for compound cytotoxicity was via MTT assay.

[2] = Larger volume flash freeze, rewarming and −20° C. storage assay; format: physicochemical; conditions: 22.5% EG
Description: In order to test the usefulness of compositions of the present invention at larger scales, experiments were performed using solution volumes that are similar to volumes used for standard egg and stem cell preservation. For these experiments, two samples, one containing 22.5% EG and buffer only, and another containing 22.5% EG and 5 mg/ml (0.5% w/v) of Compound 12 and buffer, were flash frozen in liquid nitrogen. […] The rewarming of the solutions in a 37° C. water bath led to an unexpected and beneficial result. The Compound 12 solution bypassed devitrification in less than 2 seconds upon rewarming (FIG. 6B, right), whereas chunks of ice were seen floating in the control sample (FIG. 6B, left) after 20 seconds. Condensation was seen on each of the tubes because the tubes were actually still much below room temperature.

HEK 293 cells = experiment: Cryopreservation assay, flash freezing in liquid nitrogen, Calcein AM viability; format: cell-based, human
Description: Initial cryopreservation assays were performed using very simple solutions, with and without the addition of Compound 12, in order to minimize confounding outside factors. For this first set of experiments, two sample solutions were prepared. The first sample solution contained simple buffer and ethylene glycol (EG) at a concentration of 22.5% (v/v), and the second sample solution contained simple buffer, EG (22.5% (v/v)), and 5 mg/mL (0.5% (w/v)) of Compound 12.
HEK 293 cells were grown until 70% confluent, then treated with trypsin to remove adhesion proteins and yield free floating cells. Cells were counted using a hemocytometer and sample cell concentrations were adjusted to final concentrations of 10,000 cells per microliter. Cells were then compressed into tight pellets by centrifugation, and each sample was subsequently mixed with 20 μL of one of the sample solutions. Samples were then flash frozen by immersion in liquid nitrogen, followed by rewarming in a 37° C. water bath. After the freeze-thaw process, cells were suspended in a 400× volume of culture media for recovery. The positive control sample was treated with culture media at 37° C. and not subjected to the freeze-thaw process. The negative control sample was treated with culture media only during the freeze-thaw process. After recovery, cells were stained with Calcein AM for 30 minutes and cell viability was measured using a fluorescence plate reader.
A second set of experiments was performed to evaluate the cryopreservation potential of a formulation that contained 5 mg/mL of Compound 12 plus a mixture of glycols, disaccharides, and a general buffer. Post-thaw survival following vitrification in liquid nitrogen was evaluated as described above.

[3] = MilliQ water, slow cooled, −20° C., one hour; peptoid 9 mM, EG 160 mM
Description: In this experiment, four water-based samples were prepared in capillary tubes containing MilliQ purified water. One sample contained only water, and another sample contained 160 mM ethylene glycol (EG). The other two samples each contained a peptoid polymer at 9 mM. One of the peptoid polymer samples contained the peptoid polymer called “Compound 1,” while the other sample contained the peptoid polymer called “Compound 10.” The sequences of the peptoid polymers are as follows:
After sample preparation, all samples were slow cooled and incubated at −20° C. on a Peltier cooled plate. After one hour, samples were removed and immediately photographed using a digital camera attached to a 180× Stereo Zoom microscope (FIG. 2A).

CCC(C)NCC(=O)N(CC(=O)N(CC(=O)N(CC(=O)N(CC(=O)N(CC(=O)N(CC(=O)N(CC(=O)N(CC(=O)N(CC(N)=O)CC(C)O)C(C)CC)C(C)CC)C(C)CC)CC(C)O)CC(C)O)CC(C)O)C(C)CC)C(C)CC (stereo not drawn) [Compound 2, Nsb-Nsb-Nsb-Nhp-Nhp-Nhp-Nsb-Nsb-Nsb-Nhp]
reduction of necessary EG concentration while preventing ice formation (ice ring scores) [1]: significantly reduced necessary EG concentrations while preventing ice formation

CCC(C)NCC(=O)N(CC(=O)N(CC(=O)N(CC(=O)N(CC(=O)N(CC(=O)N(CC(=O)N(CC(=O)N(CC(=O)N(CC(N)=O)CC(C)O)CC(C)O)CC(C)O)C(C)CC)CC(C)O)CC(C)O)CC(C)O)CC(C)O)CC(C)O (stereo not drawn) [Compound 8, Nsb-Nhp-Nhp-Nhp-Nhp-Nhp-Nsb-Nhp-Nhp-Nhp]
reduction of necessary EG concentration while preventing ice formation (ice ring scores) [1]: significantly reduced necessary EG concentrations while preventing ice formation

CCC(C)NCC(=O)N(CC(=O)N(CC(=O)N(CC(=O)N(CC(=O)N(CC(=O)N(CC(=O)N(CC(=O)N(CC(=O)N(CC(N)=O)C(C)CC)C(C)CC)CC(C)O)CC(C)O)C(C)CC)C(C)CC)CC(C)O)CC(C)O)C(C)CC (stereo not drawn) [Compound 12, Nsb-Nsb-Nhp-Nhp-Nsb-Nsb-Nhp-Nhp-Nsb-Nsb]
toxicity at the concentration that prevents ice formation (HEK 293 cell line; 0.5% w/v): did not show toxicity
toxicity at four times the ice-preventing concentration (HEK 293 cell line; four times greater than 0.5% w/v): did not show significant toxicity
toxicity compared with culture media alone (HEK 293 cell line; serial dilutions, 37° C., about 3 to 5 days): did not significantly deviate from the that of culture media alone
vitrification on flash freezing in liquid nitrogen ([2]; buffer, 5 mg/ml (0.5% w/v)): complete vitrification with no ice formation; also recorded: vitrified
state after overnight in −20° C. freezer ([2]; 100 μL, 5 mg/ml): remained unfrozen
vitrification of the cell sample during the freezing process (HEK 293 cells; buffer, EG 22.5% (v/v), 5 mg/mL, liquid nitrogen): complete vitrification without ice formation
cell survival compared with EG alone (HEK 293 cells; buffer, EG 22.5% (v/v), 5 mg/mL, viability 12 hours post-thaw): greatly improved cell survival
post-thaw survival of the cells (HEK 293 cells; vitrified with liquid nitrogen, viability 16 hours post-thaw, Compound 12 at 5 mg/mL plus glycols, disaccharides, general buffer): 98%
ice formation after flash freezing ([1]; 5 mg/mL (0.5% (w/v)) with EG 17.5% (v/v) in water, stream of liquid nitrogen vapor): ice-free
anti-icing effect in comparison to EG at the same molar concentration ([1]; 5 mg/mL with EG 17.5% (v/v)): 500 times
reduction of necessary EG concentration while preventing ice formation (ice ring scores) [1]: significantly reduced necessary EG concentrations while preventing ice formation

C[S+](C)[O-] [DMSO, dimethyl sulfoxide, reference compound]
concentration at which warm survival for an extended period was not allowed (HEK 293 cell line; 37° C.): above 0.5 % (v/v)

OCCO [EG, ethylene glycol]
ice crystal formation [3]: significant ice crystal formation
